Among the data in patent US20260347373A1, “HETEROCYCLIC COMPOUNDS, COMPOSITIONS THEREOF, AND METHODS OF TREATMENT THEREWITH” (BeOne Medicines I GmbH, priority 2023, published 2026) are IC50 values, retold here.

The target of one experiment is WT KRAS (Homo sapiens, UniProt P01116). Briefly: KRAS WT Probe Displacement Assay (TR-FRET, GDP-loaded). It counts as binding. An excerpt:
(§1) The synthetic routes of probe 1 and 2, which have been disclosed in PCT/CN2022/070676, are hereby incorporated herein.

In another experiment the target is KRAS G12D (Homo sapiens, UniProt P01116, G12D). Briefly: KRAS G12D Probe Displacement Assay (TR-FRET, GDP-loaded). It counts as binding.
Excerpt: as §1

The mark [1] stands for this setting: KRAS WT, read-out: KRAS^WT Probe Displacement Assay IC50.
Setting [2] is: KRAS G12D, read-out: KRAS^G12D Probe Displacement Assay IC50.
[3] abbreviates: KRAS^WT Probe Displacement Assay IC50, KRAS WT.
Where [4] appears, read: KRAS^G12D Probe Displacement Assay IC50, KRAS G12D.

Read-outs that look alike come from different tables or passages of the source. Where only a bound is given, the exact number is not on record here.

Chain of WT KRAS (P01116 1-188 isoform P01116-2): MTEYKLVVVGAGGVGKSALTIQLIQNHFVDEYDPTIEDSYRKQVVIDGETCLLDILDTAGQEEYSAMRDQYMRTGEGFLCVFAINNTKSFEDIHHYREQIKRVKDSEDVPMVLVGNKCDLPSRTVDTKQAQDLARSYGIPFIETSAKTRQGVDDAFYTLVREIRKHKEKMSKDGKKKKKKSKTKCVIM
Chain of KRAS G12D (P01116 1-188 isoform P01116-2 G12D): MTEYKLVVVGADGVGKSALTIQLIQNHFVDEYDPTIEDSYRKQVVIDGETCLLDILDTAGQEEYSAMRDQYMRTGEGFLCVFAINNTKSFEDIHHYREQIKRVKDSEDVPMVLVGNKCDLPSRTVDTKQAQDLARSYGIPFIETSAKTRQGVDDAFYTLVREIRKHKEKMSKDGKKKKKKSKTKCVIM

As to `Cc1cc(N)cc(-c2nc3c4c(nc(OC[C@]5(O)COC[C@H]5N(C)C)nc4c2F)N2C[C@H]4CC[C@H](N4)[C@H]2CCO3)c1C(F)(F)F` [Example 131, (3R,4R)-3-((((6aR,7S,10R)-2-(5-amino-3-methyl-2-(trifluoromethyl)phenyl)-1-fluoro-5,6,6a,7,8,9,10,11-octahydro-4-oxa-3,11a,12,14,15-pentaaza-7,10-methanocyclohepta[4,5]cycloocta [1,2,3-de]naphthalen-13-yl)oxy)methyl)-4-(dimethylamino)tetrahydrofuran-3-ol], the IC50 was in the range of 3 to 1000 nM on WT KRAS (setting [1]) and 0.3 to 3 nM on KRAS G12D (setting [2]).

With `Cc1cc(N)cc(-c2nc3c4c(nc(OCC5(C)CC(F)CN(C6CCOCC6)C5)nc4c2F)N2C[C@H]4CC[C@H](N4)[C@H]2CCO3)c1C(F)(F)F` (single isomer, unassigned) [Example 235], the IC50 was 3 to 1000 nM at WT KRAS (setting [1]) and 0.3 to 3 nM at KRAS G12D (setting [2]).

As to `Cc1cc(N)cc(-c2nc3c4c(nc(OCC5(CN6CC7CC7(CO)C6)CC5)nc4c2F)N2C[C@H]4CC[C@H](N4)[C@H]2CCO3)c1C(F)(F)F` (mixture of isomers) [Example 99, (3-((1-((((6aR,7S,10R)-2-(5-amino-3-methyl-2-(trifluoromethyl)phenyl)-1-fluoro-5,6,6a,7,8,9,10,11-octahydro-4-oxa-3,11a,12,14,15-pentaaza-7,10-methanocyclohepta [4,5]cycloocta [1,2,3-de]naphthalen-13-yl)oxy)methyl)cyclopropyl)methyl)-3-azabicyclo[3.1.0]hexan-1-yl)methanol], the results for the IC50 at WT KRAS (setting [1]) and on KRAS G12D (setting [2]) were 0.3 to 3 nM and less than 0.3 nM, respectively.

As to `Cc1cc(N)cc(-c2nc3c4c(nc(OCC5(CN6CCC(=C(F)F)CC6)CC5)nc4c2F)N2C[C@H]4CC[C@H](N4)[C@H]2CCO3)c1C(F)(F)F` [Example 146, 3-((6aR,7S,10R)-13-((1-((4-(difluoromethylene)piperidin-1-yl)methyl)cyclopropyl)methoxy)-1-fluoro-5,6,6a,7,8,9,10,11-octahydro-4-oxa-3,11a,12,14,15-pentaaza-7,10-methano-cyclohepta[4,5]cycloocta [1,2,3-de]naphthalen-2-yl)-5-methyl-4-(trifluoromethyl) aniline], the IC50 at WT KRAS (setting [3]) is 0.3 to 3 nM; at KRAS G12D (setting [4]) it was less than 0.3 nM.

Regarding `Cc1cc(N)cc(-c2nc3c4c(nc(OCC5(CN6CC(C)OC(C)C6)CC5(F)F)nc4c2F)N2C[C@H]4CC[C@H](N4)[C@H]2CCO3)c1C(F)(F)F` (single isomer, unassigned) [Example 24], the IC50 at WT KRAS (setting [1]) is 3 to 1000 nM; on KRAS G12D (setting [2]), 0.3 to 3 nM.

On to `Cc1cc(N)cc(-c2nc3c4c(nc(O[C@H]5COCC[C@@H]5N(C)C)nc4c2F)N2C[C@H]4CC[C@H](N4)[C@H]2CCO3)c1C(F)(F)F` [Example 8, (3R,4S)-3-(((6aR,7S,10R)-2-(5-amino-3-methyl-2-(trifluoromethyl)phenyl)-1-fluoro-5,6,6a,7,8,9,10,11-octahydro-4-oxa-3,11a,12,14,15-pentaaza-7,10-methanocyclohepta[4,5]cycloocta [1,2,3-de]naphthalen-13-yl)oxy)-N,N-dimethyltetrahydro-2H-pyran-4-amine], for which the IC50 at WT KRAS (setting [1]) fell in the range of 3 to 1000 nM; at KRAS G12D (setting [2]) it was 0.3 to 3 nM.

Take `COC1CN(C)CC(C)(COc2nc3c4c(nc(-c5cc(N)cc(C)c5C(F)(F)F)c(F)c4n2)OCC[C@@H]2[C@@H]4CC[C@H](CN32)N4)C1` (stereo partly drawn) [Example 126, 3-((6aR,7S,10R)-1-fluoro-13-((5-methoxy-1,3-dimethylpiperidin-3-yl)methoxy)-5,6,6a,7,8,9,10,11-octahydro-4-oxa-3,11a,12,14,15-pentaaza-7,10-methanocyclohepta[4,5]cycloocta[1,2,3-de]naphthalen-2-yl)-5-methyl-4-(trifluoromethyl)aniline]: the IC50 at WT KRAS (setting [1]) was 3 to 1000 nM; on KRAS G12D (setting [2]), 0.3 to 3 nM.

Turning to `[2H]C([2H])([2H])c1cc(N)cc(-c2nc3c4c(nc(OC[C@]5(CN(C)C)CC5(F)F)nc4c2F)N2C[C@H]4CC[C@H](N4)[C@H]2CCO3)c1C(F)(F)F` [Example 47, 3-((6aR,7S,10R)-13-(((R)-1-((dimethylamino)methyl)-2,2-difluorocyclopropyl)methoxy)-1-fluoro-5,6,6a,7,8,9,10,11-octahydro-4-oxa-3,11a,12,14,15-pentaaza-7,10-methanocyclohepta[4,5]cycloocta [1,2,3-de]naphthalen-2-yl)-5-(methyl-d3)-4-(trifluoromethyl)aniline], the values for the IC50 on WT KRAS (setting [1]) and on KRAS G12D (setting [2]) were 3 to 1000 nM and less than 0.3 nM, respectively.

For the compound `Nc1cc(Cl)c(C(F)(F)F)c(-c2nc3c4c(nc(OCC56C[C@@H](F)CN5C[C@H](F)C6)nc4c2F)N2C[C@H]4CC[C@H](N4)[C@H]2CCO3)c1` [Example 72, 3-chloro-5-((6aR,7S,10R)-13-(((2R,6R)-2,6-difluorotetrahydro-1H-pyrrolizin-7a(5H)-yl)methoxy)-1-fluoro-5,6,6a,7,8,9,10,11-octahydro-4-oxa-3,11a,12,14,15-pentaaza-7,10-methanocyclohepta[4,5]cycloocta [1,2,3-de]naphthalen-2-yl)-4-(trifluoromethyl)aniline], the IC50 on WT KRAS (setting [1]) was 3 to 1000 nM; on KRAS G12D (setting [2]), less than 0.3 nM.

Regarding `COC[C@H]1[C@H]2C[C@H]2CN1CC1(COc2nc3c4c(nc(-c5cc(N)cc(C)c5C(F)(F)F)c(F)c4n2)OCC[C@@H]2[C@@H]4CC[C@H](CN32)N4)CC1` [Example 183, 3-((6aR,7S,10R)-1-fluoro-13-((1-(((1S,2R,5R)-2-(methoxymethyl)-3-azabicyclo[3.1.0]hexan-3-yl)methyl)cyclopropyl)methoxy)-5,6,6a,7,8,9,10,11-octahydro-4-oxa-3,11a,12,14,15-pentaaza-7,10-methanocyclohepta[4,5]cycloocta[1,2,3-de]naphthalen-2-yl)-5-methyl-4-(trifluoromethyl)aniline], the IC50 at WT KRAS (setting [1]) is 3 to 1000 nM; at KRAS G12D (setting [2]), less than 0.3 nM.

For the compound `Cc1cc(N)cc(-c2nc3c4c(nc(OCC5(CN6CC7(CCOCC7)C6)CC5)nc4c2F)N2C[C@H]4CC[C@H](N4)[C@H]2CCO3)c1C(F)(F)F` [Example 85, 3-((6aR,7S,10R)-13-((1-((7-oxa-2-azaspiro[3.5]nonan-2-yl)methyl)cyclopropyl)methoxy)-1-fluoro-5,6,6a, 7,8,9,10,11-octahydro-4-oxa-3,11a,12,14,15-pentaaza[7,10]methanocyclohepta [4,5]cycloocta [1,2,3-de]naphthalen-2-yl)-5-methyl-4-(trifluoromethyl)aniline], the figures for the IC50 at WT KRAS (setting [1]) and on KRAS G12D (setting [2]) were 0.3 to 3 nM and less than 0.3 nM, respectively.

`Cc1cc(N)cc(-c2nc3c4c(nc(O[C@@H](C)[C@@H]5CCCN5C5COC5)nc4c2F)N2C[C@H]4CC[C@H](N4)[C@H]2CCO3)c1C(F)(F)F` [Example 227, 3-((6aR,7S,10R)-1-fluoro-13-((S)-1-((S)-1-(oxetan-3-yl)pyrrolidin-2-yl)ethoxy)-5,6,6a,7,8,9,10,11-octahydro-4-oxa-3,11a,12,14,15-pentaaza-7,10-methanocyclohepta[4,5]cycloocta[1,2,3-de]naphthalen-2-yl)-5-methyl-4-(trifluoromethyl)aniline]: the IC50 is 3 to 1000 nM on WT KRAS (setting [1]) and less than 0.3 nM on KRAS G12D (setting [2]).

Regarding `Cc1cc(N)cc(-c2nc3c4c(nc(OCC5(CN6CC7CC(C6)O7)CC5)nc4c2F)N2C[C@H]4CC[C@H](N4)[C@H]2CCO3)c1C(F)(F)F` [Example 105, 3-((6aR,7S,10R)-13-((1-((6-oxa-3-azabicyclo [3.1.1]heptan-3-yl)methyl)cyclopropyl)methoxy)-1-fluoro-5,6,6a,7,8,9,10,11-octahydro-4-oxa-3,11a,12,14,15-pentaaza-7,10-methanocyclohepta [4,5]cycloocta [1,2,3-de]naphthalen-2-yl)-5-methyl-4-(trifluoromethyl)aniline], the IC50 at WT KRAS (setting [1]) was 0.3 to 3 nM; on KRAS G12D (setting [2]), less than 0.3 nM.

With `Cc1cc(N)cc(-c2nc3c4c(nc(OCC5(CN6CC(F)C6)CC5)nc4c2F)N2C[C@H]4CC[C@H](N4)[C@H]2CCO3)c1C(F)(F)F` [Example 69, 3-((6aR,7S,10R)-1-fluoro-13-((1-((3-fluoroazetidin-1-yl)methyl)cyclopropyl)methoxy)-5,6,6a,7,8,9,10,11-octahydro-4-oxa-3,11a,12,14,15-pentaaza-7,10-methanocyclohepta[4,5]cycloocta [1,2,3-de]naphthalen-2-yl)-5-methyl-4-(trifluoromethyl)aniline], the IC50 on WT KRAS (setting [1]) is 3 to 1000 nM; at KRAS G12D (setting [2]), less than 0.3 nM.

In the case of `COC1CCCN(CC2(COc3nc4c5c(nc(-c6cc(N)cc(C)c6C(F)(F)F)c(F)c5n3)OCC[C@@H]3[C@@H]5CC[C@H](CN43)N5)CC2)C1` (stereo partly drawn) [Example 119, 3-((6aR,7S,10R)-1-fluoro-13-((1-((3-methoxypiperidin-1-yl)methyl)cyclopropyl)methoxy)-5,6,6a,7,8,9,10,11-octahydro-4-oxa-3,11a,12,14,15-pentaaza-7,10-methanocyclohepta [4,5]cycloocta[1,2,3-de]naphthalen-2-yl)-5-methyl-4-(trifluoromethyl) aniline], the IC50 on WT KRAS (setting [3]) was 3 to 1000 nM; at KRAS G12D (setting [4]), less than 0.3 nM.

In the case of `[2H]C([2H])([2H])N1CCC[C@H]1[C@H](C)Oc1nc2c3c(nc(-c4cc(N)cc(C)c4C(F)(F)F)c(F)c3n1)OCC[C@@H]1[C@@H]3CC[C@H](CN21)N3` [Example 141, 3-((6aR,7S,10R)-1-fluoro-13-((S)-1-((S)-1-(methyl-d3)pyrrolidin-2-yl)ethoxy)-5,6,6a,7,8,9,10,11-octahydro-4-oxa-3,11a,12,14,15-pentaaza-7,10-methano-cyclohepta[4,5]cycloocta [1,2,3-de]naphthalen-2-yl)-5-methyl-4-(trifluoromethyl)aniline], the IC50 at WT KRAS (setting [1]) was 3 to 1000 nM; on KRAS G12D (setting [2]), less than 0.3 nM.

As to `Cc1cc(N)cc(-c2nc3c4c(nc(OC[C@]5(CN(C)C)CC5(F)F)nc4c2F)N2C[C@H]4CC[C@H](N4)[C@H]2CC(C)O3)c1C(F)(F)F` (single isomer, unassigned) [Example 248], the IC50 on WT KRAS (setting [1]) was 0.3 to 3 nM; on KRAS G12D (setting [2]), less than 0.3 nM.
